# In patent US20170087158A1, “JANUS KINASE INHIBITORS FOR TREATMENT OF DRY EYE AND OTHER EYE RELATED DISEASES” (Incyte Corporation, priority 2008, published 2017):
# Legend:
# [1] = tested on: NOD mouse model of autoimmune type 1 diabetes; conditions: Cetkovic-Cvrlje et al. 2003; cited from earlier work
# [2] = tested on: myeloid dendritic cells (DCs); conditions: CD40-induced maturation of myeloid DCs; Saemann et al. 2003; cited from earlier work
# Experimental for JAK: Compounds herein are tested for inhibitory activity of JAK targets according to the following in vitro assay described in Park et al., Analytical Biochemistry 1999, 269, 94-104. The catalytic domains of human JAK1 (a.a. 837-1142), Jak2 (a.a. 828-1132) and Jak3 (a.a. 781-1124) with an N-terminal His tag are expressed using baculovirus in insect cells and purified. The catalytic activity of JAK1, JAK2 or JAK3 is assayed by measuring the phosphorylation of a biotinylated peptide. The phosphorylated peptide is detected by homogenous time resolved fluorescence (HTRF). IC50s of compounds is measured for each kinase in the reactions that contain the enzyme, ATP and 500 nM peptide in 50 mM Tris (pH 7.8) buffer with 100 mM NaCl, 5 mM DTT, and 0.1 mg/mL (0.01%) BSA. The ATP concentration in the reactions is 90 μM for Jak1, 30 μM for Jak2 and 3 μM for Jak3. Reactions are carried out at room temperature for 1 hr and then stopped with 20 μL 45 mM EDTA, 300 nM SA-APC, 6 nM Eu-Py20 in assay buffer (Perkin Elmer, Boston, Mass.). Binding to the Europium labeled antibody takes place for 40 minutes and HTRF signal is measured on a Fusion plate reader (Perkin Elmer, Boston, Mass.).
structure (smiles),measurement,setting,value
"N#CC[C@H](C1CCCC1)n1cc(-c2ncnc3[nH]ccc23)cn1 (mixture of isomers) [Example 67, (3R)- and (3S)-3-Cyclopentyl-3-[4-(7H-pyrrolo[2,3-d]pyrimidin-4-yl)-1H-pyrazol-1-yl]propanenitrile]",JAK inhibitor activity,"JAK; qualitative, b1163: IC50 of 10 μM or less for any JAK target (JAK1, JAK2, JAK3) is considered active",active JAK inhibitors
"N#CCC(C1CCCC1)n1cc(-c2ncnc3[nH]ccc23)cn1 (single isomer, unassigned; peak 3) [Example 67 second peak, 3-Cyclopentyl-3-[4-(7H-pyrrolo[2,3-d]pyrimidin-4-yl)-1H-pyrazol-1-yl]propanenitrile]",JAK inhibitor activity relative to its enantiomer,JAK; final products from the enantiomers separated by preparative-HPLC (OD-H),more active than its enantiomer
COc1cc2ncnc(Nc3ccc(O)cc3)c2cc1OC [JANEX-1],immunomodulatory activity,[1],potent immunomodulatory activity
same,onset of diabetes,[1],delayed the onset of diabetes
COc1cc2ncnc(Nc3ccc(O)c(Br)c3)c2cc1OC [WHI-P-154],"effect on CD40-induced JAK3 activity, costimulatory molecule expression, IL-12 production and allogeneic stimulatory capacity",[2],prevented these effects
